Experimental data from ChEMBL document CHEMBL3832761, “MMV Pathogen Box Bioactivity Data” (2017).
Values after ≈ are worked out from the molar mass of the structure shown.

Columns and labels:
Plasmodium falciparum [1] = assay: Antimalarial activity: Gametocytes Plasmodium falciparum NF54 Gametocytes Stage V: inhibition at 10 uM (%); type: functional
Plasmodium falciparum [2] = assay: Antimalarial activity: Asexual Blood Stage Plasmodium falciparum 3D7 IC50 (uM); type: functional, organism-based
Plasmodium falciparum [3] = assay: Antimalarial activity: Asexual Blood Stage Plasmodium falciparum Dd2 IC50 (uM); type: functional, organism-based
Plasmodium berghei = assay: Antimalarial activity: Liver Stage Plasmodium berghei sporozoite Luciferase assay: inhibition at 10 uM (%); type: functional
Plasmodium falciparum [4] = assay: Antimalarial activity: Asexual Blood Stage Plasmodium falciparum W2 IC50 (uM); type: functional, organism-based
HepG2 [5] = assay: HepG2 inhibition at 10 uM (%) Cytotoxicity; type: functional; conditions: Homo sapiens
MRC5 = assay: MRC5 CC50 (uM) Cytotoxicity; type: functional; conditions: Homo sapiens
HepG2 [6] = assay: Cytotoxicity data HepG2 CC20 (uM); type: functional
[7] = system: Mycobacterium tuberculosis; assay: AntiMycobacterium tuberculosis activity 1-week 7H9/DPPC/cholesterol/BSA/Tx MIC (uM); type: functional; conditions: 168 h
[8] = system: Mycobacterium tuberculosis; assay: AntiMycobacterium tuberculosis activity 2-week GAST/Fe MIC (uM); type: functional; conditions: 336 h
[9] = system: Mycobacterium tuberculosis; assay: AntiMycobacterium tuberculosis activity 1-week 7H9/glucose/BSA/Tx MIC (uM); type: functional; conditions: 168 h
[10] = system: Mycobacterium tuberculosis; assay: (§1) AntiMycobacterium tuberculosis activity day 10 in 7H9/2.5mM butyrate/pH6/0.1mM nitrite MIC90 (uM); type: functional; conditions: 240 h
[11] = system: Mycobacterium tuberculosis; assay: AntiMycobacterium tuberculosis activity Replicating form: Average MIC90 (uM); type: functional
[12] = system: Mycobacterium tuberculosis; assay: AntiMycobacterium tuberculosis activity 2-week 7H9/DPPC/cholesterol/BSA/Tx MIC (uM); type: functional; conditions: 336 h
[13] = system: Mycobacterium tuberculosis; assay: AntiMycobacterium tuberculosis activity 2-week Alamar Blue 7H9/ADC/Tw MIC (uM); type: functional; conditions: 336 h
[14] = system: Mycobacterium tuberculosis; assay: AntiMycobacterium tuberculosis activity 1-week 7H9/cholesterol/BSA/Tx MIC (uM); type: functional; conditions: 168 h
[15] = system: Mycobacterium tuberculosis; assay: AntiMycobacterium tuberculosis activity 1-week GAST/Fe MIC (uM); type: functional; conditions: 168 h
[16] = system: Mycobacterium tuberculosis; assay: AntiMycobacterium tuberculosis activity Non-Replicating form: Average MIC90 (uM); type: functional
[17] = system: Mycobacterium tuberculosis; assay: AntiMycobacterium tuberculosis activity day 21 MIC99 in 7H9/2.5mM butyrate/pH6/0.1mM nitrite MIC99 (uM); type: functional; conditions: 504 h
[18] = system: Mycobacterium tuberculosis; assay: AntiMycobacterium tuberculosis activity 2-week Alamar Blue 7H9/cholesterol/BSA/Tx MIC (uM); type: functional; conditions: 336 h
[19] = system: Mycobacterium tuberculosis; assay: AntiMycobacterium tuberculosis activity 1-week 7H9/ADC/Tw MIC (uM); type: functional; conditions: 168 h
[20] = system: Mycobacterium tuberculosis; assay: AntiMycobacterium tuberculosis activity day 21 in 7H9/2.5mM butyrate/pH6/0.1mM nitrite MIC90 (uM); type: functional; conditions: 504 h
[21] = system: Mycobacterium tuberculosis; assay: AntiMycobacterium tuberculosis activity 2-week 7H9/ADC/Tw MIC (uM); type: functional; conditions: 336 h
[22] = system: Mycobacterium tuberculosis; assay: AntiMycobacterium tuberculosis activity 2-week 7H9/glucose/BSA/Tx MIC (uM); type: functional; conditions: 336 h
[23] = system: Mycobacterium tuberculosis; assay: as §1; type: functional; conditions: 240 h; remark: listed apart in the source
HepG2 [24] = assay: HepG2 CC50 (uM) Cytotoxicity; type: functional; conditions: Homo sapiens

CCn1cnc2c(Nc3cc(F)cc(F)c3)nc(C#N)nc21
Inhibition (Plasmodium falciparum [1]): 3%
IC50 (Plasmodium falciparum [2]): 900 nM
IC50 (Plasmodium falciparum [3]): 940 nM
Inhibition (Plasmodium berghei): 0%
IC50 (Plasmodium falciparum [4]): 940 nM
inhibition at 10 µM (HepG2 [5]): 5%

COc1cc(OC)cc(C(=O)NCC2Cc3cc(Cl)cc(-c4ccncc4)c3O2)c1 (stereo unspecified)
Inhibition (Plasmodium falciparum [1]): 12.1%
IC50 (Plasmodium falciparum [2]): 580 nM
IC50 (Plasmodium falciparum [3]): 3260 nM
Inhibition (Plasmodium berghei): 52%
IC50 (Plasmodium falciparum [4]): 1020 nM
inhibition at 10 µM (HepG2 [5]): 9%

COc1ccc(-c2cncc3ccc(C(=O)NCCCn4ccnc4)nc23)cc1
Inhibition (Plasmodium falciparum [1]): 71.3%
IC50 (Plasmodium falciparum [2]): 1080 nM
IC50 (Plasmodium falciparum [3]): 1350 nM
Inhibition (Plasmodium berghei): 98%
IC50 (Plasmodium falciparum [4]): 1720 nM
inhibition at 10 µM (HepG2 [5]): 47%

Cc1ccc(-c2cc(C(=O)Nc3cccnc3)c3cc(Br)ccc3n2)cc1
inhibition (Plasmodium falciparum [1]): Series known to be active
IC50 (Plasmodium falciparum [2]): 100 nM
CC50 (MRC5): 20000 nM
inhibition (Plasmodium berghei): Series known to be active

O=C(C(Cc1c[nH]c2ccccc12)NS(=O)(=O)c1ccc(Cl)cc1)N1CCCCC1 (stereo unspecified)
Inhibition (Plasmodium falciparum [1]): 23%
IC50 (Plasmodium falciparum [2]): > 2000 nM
IC50 (Plasmodium falciparum [3]): 2000 nM
Inhibition (Plasmodium berghei): 0%
CC20 (HepG2 [6]): 21900 nM
inhibition at 10 µM (HepG2 [5]): 9%

Cc1cc(NCC(C)C)c2[nH]nc(-c3ccccc3)c2n1
IC50 (Plasmodium falciparum [2]): 1400 nM
IC50 (Plasmodium falciparum [4]): 2380 nM
inhibition at 10 µM (HepG2 [5]): 9%

O=C(NC1CC1)c1ccc(CSCc2ccccc2Cl)o1
Inhibition (Plasmodium falciparum [1]): 14.9%
IC50 (Plasmodium falciparum [2]): 1420 nM
IC50 (Plasmodium falciparum [3]): > 2000 nM
Inhibition (Plasmodium berghei): 96%
inhibition at 10 µM (HepG2 [5]): 33%

O=C(NCCN1CCCC1)c1cc(NCCN2CCOCC2)nc2ccc(Cl)cc12
inhibition (Plasmodium falciparum [1]): Series known to be active
IC50 (Plasmodium falciparum [2]): 100 nM
CC50 (MRC5): 33500 nM
inhibition (Plasmodium berghei): Series known to be active

CC(C)=CCC/C(C)=C\CNCCNC1C2CC3CC(C2)CC1C3 (stereo unspecified)
MIC [7]: 0.39 µM (≈ 0.129 µg/mL)
MIC [8]: 0.78 µM (≈ 0.258 µg/mL)
MIC [9]: 0.6 µM (≈ 0.198 µg/mL)
MIC90 [10]: > 50 µM
MIC90 [11]: 1.24 µM (≈ 0.41 µg/mL)
MIC [12]: 0.6 µM (≈ 0.198 µg/mL)
MIC [13]: 1.2 µM (≈ 0.397 µg/mL)
MIC [14]: 0.39 µM (≈ 0.129 µg/mL)
MIC [15]: 0.39 µM (≈ 0.129 µg/mL)
MIC90 [16]: 5.3 µM (≈ 1.75 µg/mL)
MIC [17]: > 50 µM
MIC [18]: 0.78 µM (≈ 0.258 µg/mL)
MIC [19]: 0.78 µM (≈ 0.258 µg/mL)
MIC90 [20]: > 50 µM
MIC [21]: 1.2 µM (≈ 0.397 µg/mL)
MIC [22]: 1.2 µM (≈ 0.397 µg/mL)
MIC90 [23]: > 50 µM
CC50 (HepG2 [24]): 7100 nM

COc1ccc(OC(C)C(=O)Nc2ccc(Cl)cc2C)cc1 (stereo unspecified)
MIC [7]: 6.25 µM (≈ 2 µg/mL)
MIC [8]: 2.3 µM (≈ 0.736 µg/mL)
MIC [9]: 9.4 µM (≈ 3.01 µg/mL)
MIC90 [10]: 25 µM (≈ 7.99 µg/mL)
MIC90 [11]: 14.6 µM (≈ 4.68 µg/mL)
MIC [12]: 6.25 µM (≈ 2 µg/mL)
MIC [13]: 6.25 µM (≈ 2 µg/mL)
MIC [14]: 9.4 µM (≈ 3.01 µg/mL)
MIC [15]: 2.3 µM (≈ 0.736 µg/mL)
MIC90 [16]: 12.2 µM (≈ 3.91 µg/mL)
MIC [17]: 50 µM (≈ 16 µg/mL)
MIC [18]: 12.5 µM (≈ 4 µg/mL)
MIC [19]: 4.7 µM (≈ 1.5 µg/mL)
MIC90 [20]: 25 µM (≈ 7.99 µg/mL)
MIC [21]: 6.25 µM (≈ 2 µg/mL)
MIC [22]: 9.4 µM (≈ 3.01 µg/mL)
MIC90 [23]: > 50 µM
CC50 (HepG2 [24]): > 100000 nM

O=C(Nc1nc(-c2ccccn2)cs1)c1cncn1-c1ccccc1
MIC [7]: 9.4 µM (≈ 3.27 µg/mL)
MIC [8]: 3.13 µM (≈ 1.09 µg/mL)
MIC [9]: 19 µM (≈ 6.6 µg/mL)
MIC90 [10]: 6.25 µM (≈ 2.17 µg/mL)
MIC90 [11]: 82.7 µM (≈ 28.7 µg/mL)
MIC [12]: 25 µM (≈ 8.69 µg/mL)
MIC [13]: 19 µM (≈ 6.6 µg/mL)
MIC [14]: 9.4 µM (≈ 3.27 µg/mL)
MIC [15]: 1.56 µM (≈ 0.542 µg/mL)
MIC90 [16]: 32.5 µM (≈ 11.3 µg/mL)
MIC [17]: > 50 µM
MIC [18]: 12.5 µM (≈ 4.34 µg/mL)
MIC [19]: 19 µM (≈ 6.6 µg/mL)
MIC90 [20]: 12.5 µM (≈ 4.34 µg/mL)
MIC [21]: 25 µM (≈ 8.69 µg/mL)
MIC [22]: 25 µM (≈ 8.69 µg/mL)
MIC90 [23]: > 50 µM
CC50 (HepG2 [24]): 3800 nM

COc1ccc2nc(C)cc(OCC(=O)NCc3ccccc3)c2c1
MIC [7]: 12.5 µM (≈ 4.2 µg/mL)
MIC [8]: 1.56 µM (≈ 0.525 µg/mL)
MIC [9]: > 50 µM
MIC90 [10]: > 50 µM
MIC90 [11]: > 100 µM
MIC [12]: > 50 µM
MIC [13]: 6.25 µM (≈ 2.1 µg/mL)
MIC [14]: > 50 µM
MIC [15]: 0.78 µM (≈ 0.262 µg/mL)
MIC90 [16]: 27.1 µM (≈ 9.12 µg/mL)
MIC [17]: > 50 µM
MIC [18]: 3.13 µM (≈ 1.05 µg/mL)
MIC [19]: > 50 µM
MIC90 [20]: > 50 µM
MIC [21]: > 50 µM
MIC [22]: > 50 µM
MIC90 [23]: > 50 µM
CC50 (HepG2 [24]): > 100000 nM

Cc1cc(O)nc(-n2nc(C)cc2C)n1
MIC [7]: 50 µM (≈ 10.2 µg/mL)
MIC [8]: 4.7 µM (≈ 0.96 µg/mL)
MIC [9]: 25 µM (≈ 5.11 µg/mL)
MIC90 [10]: 6.25 µM (≈ 1.28 µg/mL)
MIC90 [11]: > 100 µM
MIC [12]: > 50 µM
MIC [13]: 50 µM (≈ 10.2 µg/mL)
MIC [14]: 25 µM (≈ 5.11 µg/mL)
MIC [15]: 1.56 µM (≈ 0.319 µg/mL)
MIC90 [16]: > 43.3 µM
MIC [17]: 12.5 µM (≈ 2.55 µg/mL)
MIC [18]: 25 µM (≈ 5.11 µg/mL)
MIC [19]: 37 µM (≈ 7.56 µg/mL)
MIC90 [20]: 12.5 µM (≈ 2.55 µg/mL)
MIC [21]: 50 µM (≈ 10.2 µg/mL)
MIC [22]: > 50 µM
MIC90 [23]: 25 µM (≈ 5.11 µg/mL)
CC50 (HepG2 [24]): 60700 nM

Cc1ccc2[nH]c(C3CCCNC3)c(-c3ccncc3)c2c1 (stereo unspecified)
MIC [7]: 9.4 µM (≈ 2.74 µg/mL)
MIC [8]: 2.3 µM (≈ 0.67 µg/mL)
MIC [9]: 25 µM (≈ 7.28 µg/mL)
MIC90 [10]: 6.25 µM (≈ 1.82 µg/mL)
MIC90 [11]: 19.5 µM (≈ 5.68 µg/mL)
MIC [12]: 9.4 µM (≈ 2.74 µg/mL)
MIC [13]: 12.5 µM (≈ 3.64 µg/mL)
MIC [14]: 6.25 µM (≈ 1.82 µg/mL)
MIC [15]: 1.56 µM (≈ 0.455 µg/mL)
MIC90 [16]: 50.5 µM (≈ 14.7 µg/mL)
MIC [17]: 25 µM (≈ 7.28 µg/mL)
MIC [18]: 9.4 µM (≈ 2.74 µg/mL)
MIC [19]: 37 µM (≈ 10.8 µg/mL)
MIC90 [20]: 12.5 µM (≈ 3.64 µg/mL)
MIC [21]: 50 µM (≈ 14.6 µg/mL)
MIC [22]: 50 µM (≈ 14.6 µg/mL)
MIC90 [23]: 25 µM (≈ 7.28 µg/mL)
CC50 (HepG2 [24]): 12700 nM

O=C(c1[nH]nc2c1CCCC2)N1CCN(Cc2ccc3c(c2)OCO3)CC1
MIC [7]: 4.7 µM (≈ 1.73 µg/mL)
MIC [8]: 0.78 µM (≈ 0.287 µg/mL)
MIC [9]: 37 µM (≈ 13.6 µg/mL)
MIC90 [10]: 1.5 µM (≈ 0.553 µg/mL)
MIC90 [11]: > 100 µM
MIC [12]: 19 µM (≈ 7 µg/mL)
MIC [13]: 4.7 µM (≈ 1.73 µg/mL)
MIC [14]: 0.78 µM (≈ 0.287 µg/mL)
MIC [15]: 0.39 µM (≈ 0.144 µg/mL)
MIC90 [16]: > 15.5 µM
MIC [17]: > 50 µM
MIC [18]: 1.56 µM (≈ 0.575 µg/mL)
MIC [19]: > 50 µM
MIC90 [20]: 6.25 µM (≈ 2.3 µg/mL)
MIC [21]: > 50 µM
MIC [22]: > 50 µM
MIC90 [23]: > 50 µM
CC50 (HepG2 [24]): > 100000 nM
